Results as given in patent publication US20230090247A1, “MOLECULES TARGETING RAS PROTEIN” (AELIN THERAPEUTICS, priority 2020, published 2023).
Ends that are not written are not given here.

Test system: HeLa cells overexpressing mCherry-tagged KRAS G12V
Assay: Cellular fluorescent imaging in HeLa cells overexpressing mCherry-tagged KRAS G12V
Format: cell-based, human
Settings: 75 min after treatment with the FITC-labeled pept-in
Procedure: FIG. 7 illustrates cellular co-localization between mCherry-labeled KRAS and FITC-labeled RAS-targeting molecules (‘pept-ins’) according to certain embodiments of the present invention.
Fluorescent cellular imaging was performed using HeLa cells that were transduced with lentiviral particles carrying a construct expressing KRAS G12V labeled N-terminally with mCherry. Cells were seeded in a black μClear® Cellstar® F-bottom 96-well plates (Greiner) in […] full growth medium. […] Next, cells were fixed, washed and counterstained with the nuclear dye NucBlue™ (containing Hoechst 33342). Images were captured on a Leica confocal microscope.
To complement the co-immunoprecipitation approach, we also used a cellular imaging approach to show target engagement. To this end, we generated a HeLa cell line overexpressing mCherry-tagged KRAS G12V and FITC-labelled versions of the RAS-targeting pept-ins.

04-015-N032: FITC-labelled version of pept-in 04-015-N001 (KVVVGAVGKGSKVVVGAVGK; not fully specified (C-terminus); also: FITC-labelled, site not given here)
association with mCherry-labelled KRAS (inclusion-like perinuclear structures): associates with mCherry-labelled KRAS
